# Experimental data taken from patent publication US11629166B2, “Compound for treating clostridium difficile” (priority 2014, dated 2023).
# Tests used:
# Type in all cases: cell-based, Clostridium Difficile
# [1] = test system: C. Difficile NCTC 11204 and ribotype 027 (R20291) spores; test: Germination tests, heat shock method (heat vs ice); conditions: 2% (w/v) germination solution, 1 hour, strains 11204 and 027; for >1 log reduction on ice: control samples kept on ice, reduction suggests sporicide or germinant/antimicrobial; for >1 log reduction on heat: then 70° C. for 20 minutes, reduction suggests germinant
# Method: Many of the synthesised compounds were tested for their germinating and antimicrobial abilities against C. Difficile. Due to the insolubility of some of the compounds in water, DMSO, ethanol and methanol were used to dissolve the compounds.
# The C. Difficile reference strain, NCTC 11204 and C. Difficile ribotype 027 (R20291) (Anaerobic Reference Laboratory, Cardiff, UK) were used during testing.
# Spore suspensions of C. Difficile were prepared following the method proposed by Shetty et al. (1999). Briefly, Columbia base agar plates were inoculated with the relevant strain of C. Difficile and incubated for 72 hours anaerobically at 37° C. (MiniMACS anaerobic cabinet, Don Whitley Scientific, Shipley, UK). Then, the plates were removed and left or 24 hours in aerobic conditions at room temperature. Colonies were then harvested into 20 mL of 50% (w/v) ethanol and 50% saline, and vortex thoroughly. These were stored at 4° C. until needed.
# All experiments were performed in triplicate using spore suspensions containing 1×10^7 CFU mL^−1 spores of C. difficile NCTC 11204 and ribotype 027.
# Before use, 1 mL of spores were centrifuged at 13000 rpm for 10 minutes (Spectrafuge 24D; Labnet, Woodbridge, USA). The supernatant was discarded, and the pellet resuspended in 1 mL sterile distilled water and vortex mixed thoroughly.
# Germination solutions were prepared using 2% (w/v) of the compound in diluent (DMSO, ethanol, methanol, water) plus double strength thioglycollate medium (Oxoid, UK).
# For the heat shock method, 100 μl spores were exposed to 100 μl of the germination solution and incubated at room temperature in air for 1 hour. The entire 200 μl sample was then added to 800 μl sterile distilled water to dilute out the germinant to ineffective concentrations. Samples were placed on heat at 70° C. for 20 minutes to eliminate any germinated, metabolically active spores. Control samples were kept on ice. Solutions were then diluted accordingly using sterile distilled water, and cultured onto fastidious anaerobic agar (Lab M, Bury, UK), supplemented with 0.1% (w/v) sodium taurocholate (ST) and 5% (w/v) defibrinated horse blood using the Miles and Misra method (Miles et al., 1938). These were then incubated anaerobically for 48 hours at 37° C. (MiniMACS anaerobic cabinet, Don Whitley Scientific, Shipley, UK) and the CFU mL^−1 counted.
# The results from the table above show the compounds that gave a 1 log reduction or more between the initial spore count and the spore count after the heat and ice treatment. […] Due to the nature of this test, it is difficult to distinguish between the two.
# [2] = test system: C. Difficile spores; test: Germination activity of compound 129 reactively processed with HDPE after subsequent exposure to ethanol; conditions: for % Reduction 2 hours / Log Reduction 2 hours / % Reduction 24 hours / Log Reduction 24 hours / % Reduction 96 hours / Log Reduction 96 hours: HDPE polymer film, after ethanol exposure
# Method: HDPE (high density polyethylene) samples containing the modified bile salt compound 129, reactively processed under different compression moulding conditions, were tested to determine the germination activity. […] Difficile spores. This confirms the germination activity of compound 129 when incorporated into HDPE by reactive processing.
# [3] = test system: C. Difficile spores; test: Germination and antimicrobial efficiency (dual activity) of compound 129 in HDPE; conditions: for % Reduction 2 hours / Log Reduction 2 hours / % Reduction 24 hours / Log Reduction 24 hours / % Reduction 96 hours / Log Reduction 96 hours: HDPE polymer
# Description: Reactively processed HDPE polymer containing compound 129 is shown to have the ability to both germinate the spores of C. […] This exemplifies, therefore, the dual action of compound 129 and its efficacy both as a germinant and an antimicrobial.
smiles,measurement,setting,value
CCCCN(CCCC)CCCNC(=O)CC[C@@H](C)[C@H]1CC[C@H]2[C@@H]3[C@H](O)C[C@@H]4C[C@H](O)CC[C@]4(C)[C@H]3C[C@H](O)[C@]12C [Compound 7],>1 log reduction on ice,[1],Yes (11204)
same,>1 log reduction on heat,[1],Yes (11204)
CCCCCC[N+](C)(C)CCCNC(=O)CC[C@@H](C)[C@H]1CCC2C3C(C[C@H](O)[C@@]21C)[C@@]1(C)CC[C@@H](O)CC1C[C@H]3O (stereo partly shown) [Compound 29],>1 log reduction on heat,[1],yes
"C=CC[N+](C)(C)CCCNC(=O)CC[C@@H](C)[C@H]1CCC2C3C(C[C@H](O)[C@@]21C)[C@@]1(C)CC[C@@H](O)CC1C[C@H]3O.[Br-] (stereo partly shown) [Compound 34, 3-cholanamidopropyl-allyl-dimethyl-ammonium;bromide]",>1 log reduction on heat,[1],yes
C[C@H](CCC(=O)NCCC[N+](C)(C)c1ccc(C(=O)c2ccccc2)cc1)[C@H]1CC[C@H]2[C@@H]3[C@H](O)C[C@@H]4C[C@H](O)CC[C@]4(C)[C@H]3C[C@H](O)[C@]12C.[Br-] [2/148],>1 log reduction on heat,[1],Yes (027)
C[C@H](CCC(=O)NCC[N+]1(c2ccc(C(=O)c3ccccc3)cc2)CCCC1)[C@H]1CC[C@H]2[C@@H]3[C@H](O)C[C@@H]4C[C@H](O)CC[C@]4(C)[C@H]3C[C@H](O)[C@]12C.[Br-] [2/150],>1 log reduction on ice,[1],Yes (11204)
"C[C@H](CCC(=O)NCc1ccccc1)[C@H]1CC[C@H]2[C@@H]3[C@H](O)C[C@@H]4C[C@H](O)CC[C@]4(C)[C@H]3C[C@H](O)[C@]12C [Compound 2, cholic acid benzyl amide]",>1 log reduction on ice,[1],Yes (11204)
"C=Cc1ccc(C[N+](C)(C)CCNC(=O)CC[C@@H](C)[C@H]2CCC3C4CCC5C[C@H](O)CC[C@]5(C)C4CC[C@@]32C)cc1.[Cl-] (stereo partly drawn) [Compound 129, 2-[[(4R)-4-[(3R,10S,13R,17R)-3-hydroxy-10,13-dimethyl-2,3,4,5,6,7,8,9,11,-12,14,15,16,17-tetradecahydro-1H-cyclopenta[a]phenanthren-17-yl]pentanoyl]-amino]ethyl-dimethyl-[(4-vinylphenyl)methyl]ammonium chloride]","germination activity, lower vs higher processing temperature","[2]; 3% films, samples processed at the lower temperature (165° C. vs 170° C.), after 24 and 46 hours",slightly higher level of germination activity
same,% Reduction 2 hours,[2]; 3% T101 160° C.,79.8%
same,Log Reduction 2 hours,[2]; 3% T101 160° C.,0.752 Log
same,% Reduction 24 hours,[2]; 3% T101 160° C.,67.6%
same,Log Reduction 24 hours,[2]; 3% T101 160° C.,0.546 Log
same,% Reduction 96 hours,[2]; 3% T101 160° C.,69.8%
same,Log Reduction 96 hours,[2]; 3% T101 160° C.,0.577 Log
same,% Reduction 2 hours,[2]; 3% T101 165° C.,99.2%
same,Log Reduction 2 hours,[2]; 3% T101 165° C.,2.165 Log
same,% Reduction 24 hours,[2]; 3% T101 165° C.,97.1%
same,Log Reduction 24 hours,[2]; 3% T101 165° C.,1.598 Log
same,% Reduction 96 hours,[2]; 3% T101 165° C.,92.0%
same,Log Reduction 96 hours,[2]; 3% T101 165° C.,1.154 Log
same,% Reduction 2 hours,[2]; 3% T101 170° C.,99.2%
same,Log Reduction 2 hours,[2]; 3% T101 170° C.,2.165 Log
same,% Reduction 24 hours,[2]; 3% T101 170° C.,87.8%
same,Log Reduction 24 hours,[2]; 3% T101 170° C.,0.971 Log
same,% Reduction 96 hours,[2]; 3% T101 170° C.,82.0%
same,Log Reduction 96 hours,[2]; 3% T101 170° C.,0.802 Log
same,germination activity,[2]; HDPE samples with a higher amount of compound 129 (6%),did not perform well
same,Log reduction compared to the HDPE/peroxide T101 control,"[2]; polymer film containing 3% of compound 129, prepared both at 165° C. and 170° C., at 2 hours",2.2 Log
same,reduction in C. Difficile spores,"[2]; prepared at 165° C./170° C., following subsequent exposure to ethanol",99.2%
same,% Reduction 2 hours,[3]; 3% T101 165° C.,96.9%
same,Log Reduction 2 hours,[3]; 3% T101 165° C.,1.563 Log
same,% Reduction 24 hours,[3]; 3% T101 165° C.,86.9%
same,Log Reduction 24 hours,[3]; 3% T101 165° C.,0.940 Log
same,% Reduction 96 hours,[3]; 3% T101 165° C.,78.0%
same,Log Reduction 96 hours,[3]; 3% T101 165° C.,0.714 Log
same,% Reduction 2 hours,[3]; 3% T101 170° C.,79.6%
same,Log Reduction 2 hours,[3]; 3% T101 170° C.,0.747 Log
same,% Reduction 24 hours,[3]; 3% T101 170° C.,75.4%
same,Log Reduction 24 hours,[3]; 3% T101 170° C.,0.666 Log
same,% Reduction 96 hours,[3]; 3% T101 170° C.,88.5%
same,Log Reduction 96 hours,[3]; 3% T101 170° C.,0.998 Log
same,% Reduction 2 hours,[3]; 6% T101 160° C.,0.0%
same,Log Reduction 2 hours,[3]; 6% T101 160° C.,0.057 Log
same,% Reduction 24 hours,[3]; 6% T101 160° C.,44.8%
same,Log Reduction 24 hours,[3]; 6% T101 160° C.,0.315 Log
same,% Reduction 96 hours,[3]; 6% T101 160° C.,86.8%
same,Log Reduction 96 hours,[3]; 6% T101 160° C.,0.936 Log
same,spore reduction,[3]; reactive processing of the polymer at 170° C.,79.6%
same,reduction of the subsequent metabolically active bio-load after spore germination,[3]; reactively processed HDPE polymer containing compound 129,96.9%
CCCCCCCCCCCCCCCCCCNC(=O)CC[C@@H](C)[C@H]1CC[C@H]2[C@@H]3[C@H](O)C[C@@H]4C[C@H](O)CC[C@]4(C)[C@H]3C[C@H](O)[C@]12C [Compound 16],>1 log reduction on heat,[1],Yes (11204 and 027)
CCC[N+]1(CCNC(=O)CC[C@@H](C)[C@H]2CC[C@H]3[C@@H]4[C@H](O)C[C@@H]5C[C@H](O)CC[C@]5(C)[C@H]4C[C@H](O)[C@]23C)CCCC1.[I-] [Compound 45],>1 log reduction on ice,[1],yes
same,>1 log reduction on heat,[1],yes
C[C@H](CCC(=O)NCC[N+]1(Cc2ccccc2)CCCC1)[C@H]1CC[C@H]2[C@@H]3[C@H](O)C[C@@H]4C[C@H](O)CC[C@]4(C)[C@H]3C[C@H](O)[C@]12C [Compound 50],>1 log reduction on ice,[1],yes
same,>1 log reduction on heat,[1],yes
C[C@H](CCC(=O)NCCN1CCCC1)[C@H]1CC[C@H]2[C@@H]3[C@H](O)C[C@@H]4C[C@H](O)CC[C@]4(C)[C@H]3C[C@H](O)[C@]12C [Compound 10],>1 log reduction on heat,[1],Yes (11204)
